The values below are quoted from earlier work in US20150010509A1 (priority 2012, published 2015).

Entries after “also recorded” stand apart in the source; their conditions may differ. Read-outs that look alike come from different tables or passages of the source.

Data set [1] deals with T1, IDO (indoleamine 2,3-dioxygenase) (Homo sapiens, UniProt P14902).
T1 construct: freshly isolated human peripheral blood mononuclear cells (PBMC); endogenous in cells; host or cells: freshly isolated human PBMC stimulated with PHA or Con A
T1 sequence (P14902 whole entry): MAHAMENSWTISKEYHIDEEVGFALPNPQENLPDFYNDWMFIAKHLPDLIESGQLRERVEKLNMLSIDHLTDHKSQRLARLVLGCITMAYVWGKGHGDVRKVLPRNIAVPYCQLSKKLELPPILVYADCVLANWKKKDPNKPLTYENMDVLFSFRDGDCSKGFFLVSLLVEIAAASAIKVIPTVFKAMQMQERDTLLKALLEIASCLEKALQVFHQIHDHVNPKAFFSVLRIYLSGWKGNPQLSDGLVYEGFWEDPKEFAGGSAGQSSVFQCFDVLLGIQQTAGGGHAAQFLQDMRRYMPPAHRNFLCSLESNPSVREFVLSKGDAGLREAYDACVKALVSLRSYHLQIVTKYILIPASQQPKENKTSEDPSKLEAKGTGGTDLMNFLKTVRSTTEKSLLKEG
Particulars: cited from earlier work.

Data set [2] concerns MDA-MB-231 human breast cancer cells. Particulars: cited from earlier work.
In data set [3] the test system is EMT6 mouse mammary tumor cells. To be noted: CaPterin suspension 7 mg/kg/day oral, Balb/c mice, cited from earlier work.
In data set [4] the test system is MDA-MB-231 human breast cancer cells. Particulars: SCID mice, cited from earlier work.
Data set [5] has as its system human peripheral blood mononuclear cells (PBMC). To be noted: cited from earlier work.
Data set [6] deals with mammary gland adenocarcinomas. To be noted: CaPterin suspension 7 mg/kg/day, oral gavage, seven days; C3H/HeN-MTV+ female mice; cited from earlier work.
In data set [7] the test system is human peripheral blood mononuclear cells (PBMC). To be noted: at the concentrations tested; cited from earlier work.
Data set [8] deals with plasma cytokines, kynurenine, tryptophan. Particulars: cited from earlier work.
Data set [9] relates to serum kyn/trp, MCP-1, GM-CSF. To be noted: DCP per os 14 days; regression p=0.001; cited from earlier work.
Data set [10] relates to MIP-1β, inducible nitric oxide synthase 2, IDO gene expression. To be noted: infected human monocytes; cited from earlier work.
The test system of a further data set is M. bovis BCG. Particulars: cited from earlier work.
A further data set deals with hepatitis B virus (HBV). To be noted: cited from earlier work.
The conditions of data set [11]: cited from earlier work.
The mark [12] stands for this setting: Unstimulated PBMC + 200 μg/ml CaPterin.
The mark [13] stands for this setting: stepwise regression on CaPterin dose, p=0.047.

A word on the T/C: it is the ratio of treated to control. Turning to `Nc1nc2c3c(ncc[n+]3[Ca][O]2)n1`, in data set [1] (PBMC + Con A + CaPterin), the Kynurenine decrease entry is listed as “≦100-fold” and the Tryptophan is 17.7 µM. Moreover, in [1] (PBMC + PHA + CaPterin), the Kynurenine decrease result was “≦100-fold” and the Tryptophan is 17.7 µM. Further, in data set [1] (setting [12]), the Kynurenine entry is on record as “did not significantly affect”, the Kynurenine/Tryptophan result was “lower” and the Tryptophan result was “did not significantly affect”. In addition, the “IDO activity / stimulation-induced tryptophan degradation” value in data set [1] (mitogen-stimulated PBMC) was “suppressed stimulation-induced tryptophan degradation in a dose-dependent manner”. The T/C in [2] (CaPterin 21 mg/(kg day), after 60 days of treatment, 5×10^6 cells, nude mice) is 37%. The “T/C after 14 days” value in data set [2] (CaPterin suspension 7 mg/kg/day, oral gavage once daily 14 days, 5×10^6 cells, nude mice) was 41%. Also, in [2] (CaPterin suspension 7 mg/kg/day, oral gavage, 14 days, nude mice), the “treatment toxicity assessed by reductions in body weight” value is “No treatment toxicity”. Also, in [2] (mega-dosed by oral gavage 100 mg/(kg day) for up to 31 days), the “toxicity (appreciable weight loss ≧10%)” value is given as “no observed toxicity”. For the same compound, in [3] (15 days), the “animal toxicity determined by decreased body weight” value is “no measurable animal toxicity”. Besides, the “effect on tumor growth” value in [3] (once daily 15 days) was “no significant effect on tumor growth”. Besides, in data set [4] (13, 20 and 26 mg/kg CaPterin, oral gavage Monday through Friday for 75 days), the antitumor efficacy entry is given as “no antitumor efficacy”. Also, the toxicity entry in [4] (CaPterin suspension over 75 days) is “no measurable toxicity”. In addition, the neopterin excretion result in data set [5] (PBMC) is “suppressed”. Also, the Neopterin entry in [5] (setting [12]) is reported as “did not influence this level”. Also, the “ratio of Test tumor volumes to Control tumor volumes (T/C) at Day 7” value in [6] is 10%. Moreover, the “toxicity by exclusion method” value in [7] is “no toxicity”. In [8] (setting [13]), the “plasma IFN-γ” value is “decreases”, the “plasma IL-6” value is recorded as “decreases” and the “plasma IL-10” value was “increases”. In addition, the plasma kynurenine entry in [8] (stepwise regression on CaPterin dose, p=0.047, confounded by tumor shrinkage) is on record as “increases”.
Turning to `Nc1nc2nccnc2c(=O)[nH]1.[Ca]` [(1:2 mol/mol) calcium pterin, calcium pterin], in data set [2] ((1:2 mol/mol) calcium pterin 25 mg/(kg day), 10×10^6 cells, 70-98 days of treatment), the T/C is 25%.
For the compound `O.O.[Ca+2].[Cl-].[Cl-]` [Calcium chloride dihydrate, calcium chloride dihydrate], the T/C in [2] (calcium chloride dihydrate 4.2 mg/(kg day), 10×10^6 cells, 70-98 days of treatment) is recorded as 25%.
As for `Nc1nc([O-])c2nccnc2n1.Nc1nc([O-])c2nccnc2n1.[Ca+2]` [DCP, dipterinyl calcium pentahydrate], in data set [9], the “IDO activity, serum kyn/trp” value is listed as “decreased”; the “chemokine MCP-1” value is “reduced”; the “serum GM-CSF” value is reported as “increased”. In addition, the T/C in data set [2] (DCP 23 mg/(kg d), 10×10^6 cells, 70-98 days of treatment) is listed as 25%. Further, in data set [2] (DCP 69 mg/(kg d), 10×10^6 cells, 70-98 days of treatment), the T/C is on record as 50%. In data set [10], the “C-C chemokine MIP-1β” value is on record as “induction”, the IDO gene expression result is given as “suppressed” and the “inducible nitric oxide synthase 2” value is recorded as “induction”. Besides, the “viability of intracellular M. bovis BCG” value in the data set with M. bovis BCG (DCP treatment of infected human monocytes) was “significant reduction”. The “viability of extracellular M. bovis BCG” value in the data set with M. bovis BCG (DCP treatment) is listed as “not extracellular”. Moreover, the “inhibition of liver HBV DNA” value with hepatitis B virus (HBV) (DCP 23 mg/(kg d) per os, 14 days) is on record as 83%. Moreover, the “liver HBV DNA measured by PCR” value in the data set on hepatitis B virus (HBV) (DCP per os once daily 14 days, 2.3 to 23 mg/(kg d), female HBV mice) is on record as “significant dose-response reduction; also recorded: decreased”. In addition, the “tumor growth relation to plasma cytokines (DCP/APCP regression)” value in data set [8] (DCP treated mice, regression p=0.003) is “decreases with IL-12 and IL-4, and increases with IL-6”. Moreover, the “reduction of OGTT/AUC (area under OGTT curve)” value in [11] (7 mg/(kg d) DCP orally in 0.4% carboxymethylcellulose, 21 days, female DIO C57BL/6J mice, p<0.05) is 50%. In data set [11] (optimum dose 7 mg/(kg d) DCP, female DIO mice), the OGTT diabetic state result is given as “significantly improved”.
Turning to `CC(=O)O.CNC(=N)NCCC[C@H](N)C(=O)O` [L-NMMA monoacetate], the “effect on DCP inhibition of intracellular mycobacterial growth” value in the data set on M. bovis BCG (added to DCP-treated infected human monocytes) is “reversed the inhibitory effects of DCP on intracellular mycobacterial growth”.
`Nc1nc2nccnc2c(=O)[nH]1` [Pterin, pterin]: the antitumor activity result in data set [2] (pterin 21 mg/(kg day), nude mice) was “no antitumor activity”.
With `CC(C)(C)C(=O)OCOP(=O)(COCCn1cnc2c(N)ncnc21)OCOC(=O)C(C)(C)C` [adefovir dipivoxil], the “inhibition of liver HBV DNA” value in the data set with hepatitis B virus (HBV) (ADV 10 mg/(kg day)) is given as about 83%.
